The source of these data is PMC8214093, “Structural basis of KdpD histidine kinase binding to the second messenger c-di-AMP” (The Journal of Biological Chemistry, 2021).

Usually Kd stands for the equilibrium constant for the complex coming apart.

In assay [1] the target is T1, USPSa-H331A (Staphylococcus aureus, UniProt A0A7U7EVR3, H331A).
T1 sequence (A0A7U7EVR3 213-364 H331A): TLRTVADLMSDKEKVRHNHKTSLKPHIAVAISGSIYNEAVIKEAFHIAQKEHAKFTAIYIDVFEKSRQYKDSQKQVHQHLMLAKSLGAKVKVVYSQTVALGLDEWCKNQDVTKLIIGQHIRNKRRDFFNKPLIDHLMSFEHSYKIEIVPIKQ
In words: MicroScale Thermophoresis (initial fluorescence change) nucleotide binding. The following applies: for Kd: H331A mutant, MST, initial fluorescence, read-out: Dissociation Constant (KD) ± Standard Deviation. The method, then:
(§1) The ligand-binding specificity of USPSa, the role of USPSa residues in c-di-AMP binding, and the c-di-AMP binding affinity of USP homologs were biochemically determined by MST, using purified WT and mutant proteins. […] For these MST experiments, WT and active-site mutants of His6-USPSa were first fluorescently labeled using a RED-Tris NTA Monolith His-Tag labeling kit (Nanotemper, Technologies, Inc). For labeling, the proteins were diluted to a concentration of 800 nM in binding buffer (50 mM potassium phosphate, pH 8.0, 800 mM NaCl, and 0.05% Tween 20), mixed with an equal volume of RED-Tris-NTA dye (80 nM), and incubated on ice in the dark for 30 min. The stock solutions of ligands (c-di-AMP, c-di-GMP, ATP, AMP, c-AMP) were serially diluted with the binding buffer in a 1:1 ratio during each dilution step. The labeled proteins and the ligand dilutions were then mixed in a 1:1 ratio and incubated on ice in the dark for 30 min.
(§2) The samples were then loaded into Monolith standard-treated capillaries in triplicate, and the changes in fluorescence were measured with 40% LED power and 20% IR-laser power for an on-time of 20-s at 23 °C. To determine the binding affinity, the ligand-dependent changes in the intensity of the initial fluorescence, or the thermophoretic mobility, were analyzed according to the law of mass action in a standard fitting mode of MO.Affinity analysis software (version 2.3). To exclude the possibility of nonspecific binding of the ligand to the His6-tag (on USPSa) or ligand-induced USP adsorption to labware or due to aggregation, we performed His6-peptide and EDTA tests, respectively ([91]). In the His6-peptide test, a control His6-peptide was used instead of USP in the binding assay described above, and if no change in initial fluorescence occurred, this confirmed the USP-specific binding of ligands. In the EDTA test, the binding buffer additionally contained 50 mM EDTA to disrupt the interaction between His6-USP and the RED-Tris-NTA dye. The complete loss of the ligand-induced initial fluorescence change in this assay confirmed that this change was neither because of protein aggregation nor because of protein adsorption to labware.
(§3) The Ka values of WT USPSa for c-di-AMP or AMP were set to 100% relative affinity, and the binding affinities of the other nucleotides (Fig. 1C), or USPSa mutants (Fig. 4E), or USP homologs (Fig. 6, B and C) were depicted as percent values compared with the values of the WT USPSa.
In general terms: In MST a laser heats a spot of the sample, and binding alters the fluorescence response.

The target of assay [2] is USPSa-WT (Staphylococcus aureus, UniProt A0A7U7EVR3). The experiment in a line: MicroScale Thermophoresis (thermophoretic mobility change) nucleotide binding. Particulars: MST, change in thermophoretic mobility, read-out: Dissociation Constant (KD) ± Standard Deviation. The method, then:
as §1, §2, §3

For assay [3], the target named is USPSa-R279A (Staphylococcus aureus, UniProt A0A7U7EVR3, R279A). Described as above. The following applies: R279A mutant; MST, change in thermophoretic mobility; read-out: Dissociation Constant (KD) ± Standard Deviation. The method, then: as §1, §2, §3
In assay [4] the target is T2, USPSa-K277A (Staphylococcus aureus, UniProt A0A7U7EVR3, K277A).
T2 sequence (A0A7U7EVR3 213-364 K277A): T1 sequence (A0A7U7EVR3 213-364 H331A)
The assay is described as above. Particulars: K277A mutant; for Kd: MST, change in thermophoretic mobility, read-out: Dissociation Constant (KD) ± Standard Deviation. The method, then: as §1, §2, §3

The target in assay [5] is USPSa2-WT (Staphylococcus aureus, UniProt Q5HK61). In words: biochemical. Particulars: MST, change in thermophoretic mobility, read-out: Dissociation Constant (KD) ± Standard Deviation. Format: binding.
Assay [6] addresses USPSa-V310A (Staphylococcus aureus, UniProt A0A7U7EVR3, V310A). The experiment in a line: MicroScale Thermophoresis (initial fluorescence change) nucleotide binding. Particulars: V310A mutant, MST, read-out: Dissociation Constant (KD) ± Standard Deviation. As for the experimental part:
as §1, §2, §3

Assay [7] addresses USPSp-WT. Format: binding, Streptococcus pneumoniae. Particulars: MST, change in thermophoretic mobility, read-out: Dissociation Constant (KD) ± Standard Deviation.
Assay [8] deals with maltose-binding protein–tagged version of the USPSa Y271A mutant. Further details: method as in PMID 26195599. Particulars: cited from earlier work.
Assay [9] addresses maltose-binding protein–tagged USP. Particulars: differential radial capillary action of ligand assay, read-out: previously reported KD; cited from earlier work.
Assay [10] deals with untagged USPSa. The experiment in a line: fluorescence-based thermal shift (ThermoFluor) assay. Format: binding, Staphylococcus aureus. Particulars: 7.5-fold molar excess of c-di-AMP; purified untagged USPSa.
Description: The plates were then sealed with Microseal “B” Seal Seals (Bio-Rad Laboratories) and heated in a CFX96 real-time PCR system (Bio-Rad Laboratories) from 25 °C to 99 °C in increments of 0.5 °C. Fluorescence changes in the plate wells were monitored simultaneously with a charge-coupled device camera, utilizing excitation and emission wavelengths of 497 nm and 520 nm, respectively.
For assay [11], the target named is T3, USPMtb-WT (Mycobacterium tuberculosis, UniProt P9WGL3).
T3 construct: made in house; host or cells: E. coli C41 (DE3), pTB146, no KdpE co-expression
The experiment in a line: biochemical. The assay is classed as binding.

Turning to `Nc1ncnc2c1ncn2[C@@H]1O[C@H](COP(=O)(O)O)[C@@H](O)[C@H]1O` [AMP], the Kd in assay [1] was 4.13 ± 0.11 mM; in assay [2], 20.7 ± 4.4 mM; in [3], 14.4 ± 0.95 mM; in assay [4] it was 50.7 ± 4.03 mM. The “loss of relative binding affinity” value in [1] (His331 to Ala mutant, relative to WT USPSa) is about 60%. This compound had a relative binding affinity in [4] (Ka relative to WT USPSa set to 100%) of about 45%.
Regarding `Nc1ncnc2c1ncn2[C@@H]1O[C@@H]2COP(=O)(O)O[C@H]3[C@@H](O)[C@H](n4cnc5c(N)ncnc54)O[C@@H]3COP(=O)(O)O[C@H]2[C@H]1O` [c-di-AMP, cyclic-di-adenosine monophosphate], the Kd is 125 ± 15 µM in [5]; 1710 ± 420 nM in assay [6]; 0.00237 ± 0.00132 mM in assay [1]; 67.5 ± 13 µM in [7]; 2000 ± 180 nM in assay [9]; 666 ± 168 µM in assay [11]. Besides, the Kd in assay [2] came to 0.00313 ± 0.00075 mM; in [3], 0.00867 ± 0.00075 mM; in assay [4], 0.0101 ± 0.00024 mM. Also, the “c-di-AMP binding in vitro (in words)” value in [8] is recorded as “deficient in c-di-AMP binding”. Besides, the “increase of melting temperature of USPSa” value in assay [10] turned out to be 10 °C.
